Results reported in patent US6117859A, “Method of relieving chronic inflammation by using 5-alkylsulfonylsalicylanilides” (The Research Foundation of State University of New York, priority 1999, dated 2000).

Columns and labels:
[1] = tested on: TPA induced mouse ear edema; experiment: Acute TPA mouse ear inflammation assay, edema (ear weight); assay type: in vivo
From the text: The anti-inflammatory effect of selected compounds of this invention were compared to those of Triclosan™ and hydrocortisone in a modified […] (TPA) mouse ear inflammation assay. TPA was used as an inflammogen rather than croton oil because TPA gives a well characterized inflammatory response at very low concentrations. […] This model can therefore be used to study the pharmacokinetics, clinical efficacy and adverse side effects of anti-inflammatory agents. To quantitate inflammation, ear punches from treated animals were used to measure increased ear mass (edema) and myeloperoxidase (MPO) activity. For the inhibition studies, ear biopsies were weighed six hours after treatment with TPA and the simultaneous application of the compound of the present invention. All the compounds were diluted in acetone. Following this, the biopsies were frozen and subsequently used to measure inhibition of MPO activity, an estimate of polymorphonuclear (PMN) […] activity in the affected area. Percent inhibition of edema was calculated as [c-t]/c x 100, where c and t are increases in ear weight in control and treated mice, respectively.
Initially a dose-response curve for TPA-induced mouse ear edema was generated in order to determine the concentration of TPA to be employed in the inhibition studies. TPA produced a theoretical dose-response curve for edema with an ED50 of 80 ng/ear and an ED90 of 200 ng/ear in two separate experiments. ED50 is the dose at which 50% of the maximum effect was observed while ED90 is the dose at which 90% of the maximum effect was observed. […] The ED50 values for the compounds tested are as follows: […]

[2] = tested on: TPA treated mouse ear skin; experiment: Histopathology of ear biopsies after multiple doses of TPA (epidermal thickness, dermal cellularity); assay type: in vivo, mouse (female CD-1)
Experimental: (§1) The assay used female CD-1 mice (7-9 weeks of age). Following a 2-week quarantine, mice were randomly assigned to test groups (5 mice/groups). TPA (10 uL of 0.01 TPA in acetone) was administered to both the inner and outer surface of each ear (2μg/ear) on day 0,2,4,7, and 9 on protocol. On Day 7,8 and 9, two applications of test article were applied to each ear 2 and 4 hours after dosing with TPA. The test articles were administered in 10 uL aliquots to both the inner and outer surface of each ear (20 μl total/dose). The candidate drugs were tested at several different concentrations (e.g., 5, 1.25, and 0.125 mg/ear) to determine a maximum effective dose within a range that could be effectively applied. Hydrocortisone-17-valerate (HCV, 20μg/ear) was employed as a positive control. Mice were sacrificed at Day 10 on protocol and uniform punch biopsies (approximately 8 mm dia.) were taken from each ear. While on protocol, dermal irritation was scored semiquantitatively at Day 1,3,5,8, and 10.
(§2) Inhibition of TPA stimulated increased ear weight was used as an initial measure of efficacy for all of the agents tested. One biopsy from each mouse was also quick frozen and stored at -70° C. for later assay of myleoperoxidase, an enzyme associated with infiltrating PMN, or other measure of efficacy. The remaining biopsy from each mouse treated with Trifluorosal or HCV was fixed in formalin and processed for histopathologic evaluation, including measurement of cellular infiltration (PMNs, endothelial cells, macrophages) and epidermal thickness at 20 random sites along the length of the specimen.
In order to confirm the subjective observations, quantitative determinations of 3 parameters (epidermal thickness, dermal thickness, and dermal cellularity) in the skin of negative controls (acetone), positive controls (TPA), and TPA treated skin treated with 3 doses of test article (Trifluorosal) and hydrocortisone were carried out. Epidermal thickness reflects the reactive proliferative activity induced by TPA in the […]: dermal thickness reflects primarily Ad edema but may also be affected by other phenomena, such as formation of granulation tissue, collagen synthesis, the activity of myofibroblasts, etc. Cellularity of the dermis is frequently used as a surrogate marker of inflammatory changes in the dermis.
Determination of the epidermal thickness was performed under the microscope with a calibrated scale placed in the eyepiece. Ten determinations were carried out in the epidermis covering the outside of the ear using a 40× objective and a 10× eyepiece (400× total). The measurements were taken from the basal side of the basal layer (basement membrane) to the outer side of the last nucleated cell of the […]. The average of the 10 measurements expressed in microns was entered in the table.
Determination of dermal thickness was performed using a similar technique. To avoid variability caused by the difference in sizes between the base and tip of the ear, only 3 measurements were performed in the center of the sample. The measurements were performed from the basement membrane of the external and internal epithelial and therefore include, in addition to both dermis (external and internal), the cartilage.
Cellularity of the dermis was calculated by projecting a calibrated grid into the dermis and counting cells in the known area of the dermis. Areas of hair follicles or sebaceous glands were avoided. Five fields were counted and the results were adjusted to the number of cells in 1,000 square microns.
The results of individual animals were entered in the table and the averages and standard deviation were calculated using an EXCEL database. In addition, the results were also expressed as a percentage of the control (acetone treated). Furthermore, the percentage of inhibition of the test articles were calculated using the following formula: [formula]

[3] = tested on: TPA induced mouse ear edema; conditions: cited from earlier work
[4] = Single dose oral tolerance in rats; assay type: in vivo, rat (male weaning Sprague-Dawley); conditions: single dose 2.5 or 0.75 g/kg in 5% CMC, 7 days
Experimental: To test for tolerance of the administered compounds, male weaning Sprague-Dawley rats were fed in a single dose of 2.5 or 0.75 g/kg of TMF-12, TMF-10, TMC-10 or TPC-10 in 5% carboxymethyl cellulose (CMC) or CMC alone. […] At completion of the 7 day observation period, necropsies were performed on all animals.

[5] = Solubility of representative compounds in various solvent systems; assay type: physicochemical
Experimental: The solubility of representative compounds of this invention in various solvent systems was determined. The solvents included ethanol, propylene glycol, SLS, Tween 80™ and combinations thereof.

[6] = tested on: ear weight gain produced by multiple doses of TPA in mice; experiment: Chronic (multiple dose) TPA mouse ear inflammation assay, ear weight gain; assay type: in vivo, mouse (female CD-1); conditions: for % Inhibition of Ear Weight Gain, Relative to Hydrocortisone (HCV) = 100%: head prints 1.25 eg/ear
Experimental: The acute skin inflammation model described in Example 1, tests the ability of a compound to prevent inflammation and thus must be applied prophylactically. Most clinical situations, however, are present as chronic inflammatory conditions. […] The effects of the compounds of the present invention and Salifluor on chronically inflamed skin was measured in the mouse ear model that utilizes multiple TPA doses over a 10-day period to produce the inflammatory response.
as §1, with “The candidate drugs were tested at several different concentrations (e.g., 5, 1.25, and 0.125 mg/ear) to determine a maximum effective dose within a range that could be effectively applied.” left out
as §2
Initially, a dose-response curve for multiple doses of TPA to produce mouse ear weight gain was generated in order to determine the concentration of TPA to be employed in the inhibition studies. […] Another major difference between the multiple TPA dose (or chronic assay for inflammation) and the single TPA dose (or acute assay for inflammation) in the mouse ear is sensitivity to Non-steroidal antiinflammatory drugs (NSAIDs) and antihistamines.

[7] = Stability in solution by HPLC (TMF-10, 40° C.); assay type: physicochemical; conditions: 0.3 mg/ml in 30% ethanolic water, four weeks
Experimental: An analytical method to determine concentration and stability of some representative compounds of this invention in solution employing high pressure liquid chromatography (HPLC) was developed and validated. Both isocratic and gradient mobile phases of acetonitrile, water and methanol were investigated on a C-18 silica reverse solid phase column (Zorbax). Results were obtained using a 12 minute gradient of 80% to 100% methanol/water at a flow rate of 1.5 ml/minutes. Detection was carried out by measuring absorbance at 280 nm. Under these conditions TMF-10 and TMC-l0 each produced symmetrical peaks with retention times of 7.5 and 3.0 minutes, respectively. TMF-8 and TMF-12 had retention times of 4 and 9 minutes respectively. […] The lowest detectable quantity measured for all three compounds was 5.0 ng.
A 0.3 mg/ml solution of TMF-10 in 30% ethanolic water was maintained at 40° C. for several weeks. At various times samples were analyzed for decomposition employing the HPLC method described in Example 2.

[8] = in vivo; cited from earlier work
[9] = tested on: ear weight gain produced by multiple doses of TPA in mice; conditions: cited from earlier work
[10] = aqueous buffer, pH 10 K-buffer @ 35° C.
[11] = aqueous buffer, pH 10 Na-buffer @ 22° C.
[12] = organic solvent or mixture, Ethanol @ 19° C.
[13] = organic solvent or mixture, Propylene Glycol @ 20° C.
[14] = ph 10 na-buffer +0.5% sls, pH 10 Na-buffer @ 22° C. +0.5% SLS
[15] = inflammogen dose-response, two separate experiments, 6 hours

SMILES | Illness or deaths [4] | solubility ([5]; +1% sls) [µg/mL] | solubility ([5]; +2% sls) [µg/mL] | solubility ([5]; +4% sls) [µg/mL] | solubility [5, 10] [µg/mL] | solubility [5, 11] [µg/mL] | solubility [5, 12] [µg/mL] | solubility [5, 13] [µg/mL] | solubility [5, 14] [µg/mL] | % Inhibition of Ear Weight Gain, Actual ([6]; multiple doses of TPA) [%] | % Inhibition of Ear Weight Gain, Relative to Hydrocortisone (HCV) = 100% ([6]; multiple doses of TPA) [%] | also measured
C[C@]12CCC(=O)C=C1CC[C@@H]1[C@@H]2[C@@H](O)C[C@@]2(C)[C@H]1CC[C@]2(O)C(=O)CO [Hydrocortisone, reference compound] |  |  |  |  |  |  |  |  |  |  |  | Relative anti-inflammatory potency (in words) ([1]; acute assay): the most potent anti-inflammatory agent tested; % Inhibition, Dermal Cellularity ([2]; 0.02 mg/ear): 78.6%; % Inhibition, Epidermal Thickness ([2]; 0.02 mg/ear): 58.6%; Blood vessel prominence (in words) ([2]; histopathology): Blood vessels were not as prominent; Cellularity of the dermis (in words) ([2]; histopathology, FIG. 1): reduced the epidermal thickness as well as the cellularity of the dermis; Epidermal thickness (in words) ([2]; histopathology, FIG. 1): reduced the epidermal thickness
CC(C)Cc1ccc(C(C)C(=O)O)cc1 (centres unmarked) [Ibuprofen] |  |  |  |  |  |  |  |  |  |  |  | Inhibition of acute TPA assay by NSAIDs [3]: inhibited
COc1ccc2cc([C@H](C)C(=O)O)ccc2c1 [Naproxen] |  |  |  |  |  |  |  |  |  |  |  | Inhibition of acute TPA assay by NSAIDs [3]: inhibited
CCCCCCCCCCS(=O)(=O)c1ccc(O)c(C(=O)Nc2cccc(C#N)c2)c1 [TMC-10] | No illness or deaths occurred | 4270 | 6680 | 7900 | 5.58 | 7.2 | 36700 | 1940 | 3130 | 0 | 0 | solubility ([5]; +0.5% tween 80): 770 µg/mL; solubility ([5]; +1.5% tween 80): 2240 µg/mL; solubility ([5]; +2% SLS + 0.5% Tween 80): 3980 µg/mL; solubility ([5]; +2% SLS + 1.0% Tween 80): 4740 µg/mL; solubility ([5]; +2% SLS + 2.0% Tween 80): 5050 µg/mL; solubility ([5]; +3.0% tween 80): 4690 µg/mL
CCCCCCCCCCS(=O)(=O)c1ccc(O)c(C(=O)Nc2cccc(C(F)(F)F)c2)c1 [TMF-10] | No illness or deaths occurred | 920 | 1280 | 2080 | < 0.1 | 1.89 | 44700 | 1700 | 370 | 54.7 | 59.9 | Decomposition in solution [7]: no decomposition of TMF-10 was detected; solubility ([5]; +0.5% tween 80): 760 µg/mL; solubility ([5]; +1.5% tween 80): 2020 µg/mL; solubility ([5]; +2% SLS + 0.5% Tween 80): 1350 µg/mL; solubility ([5]; +2% SLS + 1.0% Tween 80): 1910 µg/mL; solubility ([5]; +2% SLS + 2.0% Tween 80): 2870 µg/mL; solubility ([5]; +3.0% tween 80): 4130 µg/mL; Inhibition of ear weight gain ([6]; 5.0 mg/ear (printed 'mc/ear' for Trifluorosal)): 69.8%; Activity in chronic assay (in words) ([6]; 1.25-5 mg/ear, remaining experiments): demonstrated consistent activity; Inhibition of ear weight gain ([6]; 2.5 or 1.25 mg/ear (two values printed for three doses)): 0.0%
CCCCCCCCCCCCCC(=O)O[C@@H]1[C@@H](C)[C@@]2(O)[C@@H](C=C(CO)C[C@]3(O)C(=O)C(C)=C[C@@H]23)[C@@H]2C(C)(C)[C@]12OC(C)=O [TPA, 12-tetradecanoyl 13-phorbol acetate, reference compound] |  |  |  |  |  |  |  |  |  |  |  | ED50 for TPA-induced ear edema [1, 15]: 80 ng/ear; ED90 for TPA-induced ear edema [1, 15]: 200 ng/ear; Histopathological change produced by multiple doses of TPA ([2]; multiple doses of TPA): dramatic hyperplasia of the epidermis as well as inflammatory changes in the dermis; Dose of TPA producing maximal ear weight gain ([6]; multiple doses of TPA): 2 μg/ear; Dose of TPA with marginal effects on ear weight gain ([6]; multiple doses of TPA): below 1 μg/ear
CCCCCCCCCCS(=O)(=O)c1ccc(O)c(C(=O)Nc2ccc(C#N)cc2)c1 [TPC-10] | No illness or deaths occurred | 690 | 910 | 1810 | 3.45 | 9.16 | 11500 | 810 | 300 | 0 | 0 | 
Oc1cc(Cl)ccc1Oc1ccc(Cl)cc1Cl [Triclosan, 2',4,4'-trichloro-2-hydroxy-diphenyl-ether] |  |  |  |  |  |  |  |  |  |  |  | Anti-inflammatory activity in clinical trials [8]: have been reported to have anti-inflammatory activity in clinical trials
O=C(O)Cc1ccccc1Nc1c(Cl)cccc1Cl [diclofenac] |  |  |  |  |  |  |  |  |  |  |  | Sensitivity of chronic TPA assay to NSAIDs [9]: insensitive
CN1C(C(=O)Nc2ccccn2)=C(O)c2ccccc2S1(=O)=O [piroxicam] |  |  |  |  |  |  |  |  |  |  |  | Sensitivity of chronic TPA assay to NSAIDs [9]: insensitive
